Experimental data reported in patent US10377774B2 (JINAN UNIVERSITY, priority 2013, dated 2019).
Marks after values point to notes of the source that are not given here.

What was measured:
HepG2 xenografts = HepG2 xenografts in nude mice; assay type: in vivo; conditions: HepG2 xenograft nude mice; for Anti-tumor rate (%) / Body weight (g) Post-dose / Tumor weight: 1 mg/kg; for Body weight (g) Pre-dose: before dosing
Procedure: (§1) Experimental method: The MDA-MB-231 cells at logarithmic phase were digested and washed twice with PBS. Then, 100 μL cells (1×10^7) were inoculated subcutaneously on the backs of female BALB/nu/nu mice. After tumors grew to 70˜100 mm^3, the mice were divided randomly into saline group (control group), vinca alkaloids groups (VLB, CCRB, CCFN, CCXJ) and vinca alkaloid derivatives groups (JJ-CCJ, BX-CCJ, JJ-CCRB, BX-CCRB, JJ-CCFN, BX-CCFN, JJ-CCXJ and BX-CCXJ), with six mice per group. 1 mg/kg drugs were injected intraperitoneally every two days, meanwhile body weight and tumor sizes were measured. Experiment was ended after 8 times of drug administration, then tumor and organs were stripped. Tumor volumes were measured using the following formula: V=½(ab^2), whereas a refers to the longest diameter and b is the shortest diameter.
(§2) Tumor xenograft models of HepG2, LOVO, K562 and HL-60 cell lines were performed as the method described above.

[1] = test system: human liver cancer cell line HepG2; assay: MTT cell growth inhibition, HepG2; assay type: cell-based; conditions: HepG2, MTT assay, 72 h; read-out: IC50, growth of tumor cell line
Excerpt: (§3) Experimental method: Cell lines (human non-small-cell lung cancer cell line A549, human colon cancer cell line LOVO, human nasopharyngeal carcinoma cell line CNE-2, human liver cancer cell line HepG2, human cervical carcinoma cell line Hela, human breast cancer cell lines MCF-7 and MDA-MB-231, human gastric carcinoma cell line NCI-N87, human prostatic cancer cell lines PC-3 and DU145, human leukemia cell line K562, human melanoma cell line A375, human neuroblastoma cell line SH-SY5H, human promyelocytic leukemia cell line HL-60, 5-FU-resistant human hepatocellular carcinoma cell line BEL-7402/5-Fu, doxorubicin-resistant hepatocellular carcinoma cell line HepG2/ADM, doxorubicin-resistant human breast cancer cell lines MCF-7/ADR) at logarithmic phase were resuspended in RPMI 1640 medium (containing 10% fetal bovine serum, 100 U/mL penicillin-streptomycin). Then, 100 μL of cells (cell concentration was 5×10^5/mL) were seeded into 96 wells plate. After 24 h incubation at 37° C. with 5% CO2, tested compounds were added (the control group without compound) for an additional 72 h incubation. After that, 30 μL of MTT [3-(4,5-Dimethylthiazol-2-yl)-2,5-diphenyltetrazolium bromide] solution (5 mg/mL) was added into each well and incubated for another 4 h at 37° C. and then the formazan crystals were solubilized with 100 μL DMSO. Finally, absorbance of each well was determined at 570 nm by a microplate reader (Thermo).
(§4) The concentration required to inhibit cell growth by 50% (IC50) was calculated from survival curves.

[2] = test system: human prostatic cancer cell line PC-3; assay: MTT cell growth inhibition, PC-3; assay type: cell-based; conditions: PC-3, MTT assay, 72 h; read-out: IC50, growth of tumor cell line
Excerpt: as §3, §4

[3] = test system: human gastric carcinoma cell line NCI-N87; assay: MTT cell growth inhibition, NCI-N87; assay type: cell-based; conditions: NCI-N87, MTT assay, 72 h; read-out: IC50, growth of tumor cell line
Excerpt: as §3, §4

[4] = test system: human leukemia cell line K562; assay: MTT cell growth inhibition, K562; assay type: cell-based; conditions: K562, MTT assay, 72 h; read-out: IC50, growth of tumor cell line
Excerpt: as §3, §4

[5] = test system: human normal liver cells LO2; assay: MTT cytotoxicity on normal cells, LO2; conditions: read-out: IC50, cytotoxicity on normal cell line; LO2, MTT assay
Procedure: (§5) Then, 100 μL of cells (cell concentration was 5×10^5/mL) were seeded into 96 wells plate. After 24 h incubation at 37° C. with 5% CO2, tested compounds were added (the control group without compound) for an additional 72 h incubation. After that, 30 μL of MTT [3-(4,5-Dimethylthiazol-2-yl)-2,5-diphenyltetrazolium bromide] solution (5 mg/mL) was added into each well and incubated for another 4 h at 37° C. and then the formazan crystals were solubilized with 100 μL DMSO. Finally, absorbance of each well was determined at 570 nm by a microplate reader (Thermo).
(§6) The standard curve was drew with compound concentrations as the abscissa and cell growth inhibition rates as the ordinate. The concentration required to inhibit cell growth by 50% (IC50) was calculated from survival curves.
(§7) Experimental method: In vitro cytotoxicities of vinca alkaloids, hydrazinolyzed vinca alkaloids and vinca alkaloid dipeptide derivatives on human normal liver cells LO2 and human umbilical vein endothelial cells HUVEC were detected according to the method of Example 2.

Kunming mice = assay: Acute toxicity test; assay type: in vivo; conditions: injected intraperitoneally
Procedure: Experimental method: Kunming mice were purchased from Guangdong Medical Experimental Animal Center, weighing 18-22 g, then randomly divided into several groups with 10 mice in each group. Different concentrations of VLB and vinca alkaloid dipeptide derivatives were injected intraperitoneally. Finally, the median lethal dose (LD50) was calculated according to the surviving animals.
LD50 was measured using the following formula:
LD50 (mg/kg)=The median lethal dose/body weight

[6] = test system: doxorubicin-resistant hepatocellular carcinoma cell line HepG2/ADM; assay: MTT cell growth inhibition, HepG2/ADM; assay type: cell-based, human; conditions: MTT assay, 72 h, read-out: IC50, growth of tumor cell line
[7] = test system: doxorubicin-resistant human breast cancer cell lines MCF-7/ADR; assay: MTT cell growth inhibition, MCF-7/ADR; assay type: cell-based; conditions: MTT assay, 72 h, read-out: IC50, growth of tumor cell line
Excerpt: as §3, §4

[8] = test system: 5-FU-resistant human hepatocellular carcinoma cell line BEL-7402/5-Fu; assay: MTT cell growth inhibition, BEL-7402/5-Fu; assay type: cell-based; conditions: MTT assay, 72 h, read-out: IC50, growth of tumor cell line
[9] = test system: human breast cancer cell line MDA-MB-231; assay: MTT cell growth inhibition, MDA-MB-231; assay type: cell-based; conditions: MDA-MB-231, MTT assay, 72 h; read-out: IC50, growth of tumor cell line
Excerpt: as §3, §4

[10] = test system: human breast cancer cell line MCF-7; assay: MTT cell growth inhibition, MCF-7; assay type: cell-based; conditions: MCF-7, MTT assay, 72 h; read-out: IC50, growth of tumor cell line
[11] = test system: human non-small-cell lung cancer cell line A549; assay: MTT cell growth inhibition, A549; assay type: cell-based; conditions: A549, MTT assay, 72 h; read-out: IC50, growth of tumor cell line
Excerpt: as §3, §4

HL-60 xenografts = HL-60 xenografts in nude mice; assay type: in vivo; conditions: HL-60 xenograft nude mice; for Anti-tumor rate (%) / Body weight (g) Post-dose / Tumor weight: 1 mg/kg; for Body weight (g) Pre-dose: before dosing
Procedure: as §1, §2

[12] = test system: human neuroblastoma cell line SH-SY5H; assay: MTT cell growth inhibition, SH-SY5H; assay type: cell-based; conditions: MTT assay, 72 h, read-out: IC50, growth of tumor cell line
[13] = test system: human prostatic cancer cell line DU145; assay: MTT cell growth inhibition, DU-145; assay type: cell-based; conditions: DU-145, MTT assay, 72 h; read-out: IC50, growth of tumor cell line
MDA-MB-231 xenografts = MDA-MB-231 xenografts in nude mice; assay type: in vivo, BALB/nu/nu mice; conditions: MDA-MB-231 xenograft nude mice; for Anti-tumor rate (%) / Body weight (g) Post-dose / Tumor weight: 1 mg/kg i.p. every two days, 8 administrations; for Body weight (g) Pre-dose: before dosing
Procedure: as §1

K562 xenografts = K562 xenografts in nude mice; assay type: in vivo; conditions: K562 xenograft nude mice; for Anti-tumor rate (%) / Body weight (g) Post-dose / Tumor weight: 1 mg/kg; for Body weight (g) Pre-dose: before dosing
Procedure: as §1, §2

[14] = test system: human promyelocytic leukemia cell line HL-60; assay: MTT cell growth inhibition, HL-60; assay type: cell-based; conditions: HL-60, MTT assay, 72 h; read-out: IC50, growth of tumor cell line
Excerpt: as §3, §4

[15] = test system: human umbilical vein endothelial cells HUVEC; assay: MTT cytotoxicity on normal cells, HUVEC; conditions: read-out: IC50, cytotoxicity on normal cell line; HUVEC, MTT assay
Procedure: as §5, §6, §7

[16] = test system: human nasopharyngeal carcinoma cell line CNE-2; assay: MTT cell growth inhibition, CNE-2; assay type: cell-based; conditions: CNE-2, MTT assay, 72 h; read-out: IC50, growth of tumor cell line
Excerpt: as §3, §4

[17] = test system: human colon cancer cell line LOVO; assay: MTT cell growth inhibition, LOVO; assay type: cell-based; conditions: LOVO (FAPα positive), MTT assay, 72 h; read-out: IC50, growth of tumor cell line
LOVO xenografts = LOVO xenografts in nude mice; assay type: in vivo; conditions: LOVO xenograft nude mice; for Anti-tumor rate (%) / Body weight (g) Post-dose / Tumor weight: 1 mg/kg; for Body weight (g) Pre-dose: before dosing
Procedure: as §1, §2

[18] = test system: human cervical carcinoma cell line Hela; assay: MTT cell growth inhibition, Hela; assay type: cell-based; conditions: MTT assay, 72 h, read-out: IC50, growth of tumor cell line
Excerpt: as §3, §4

[19] = test system: human melanoma cell line A375; assay: MTT cell growth inhibition, A375; assay type: cell-based; conditions: A375, MTT assay, 72 h; read-out: IC50, growth of tumor cell line
Excerpt: as §3, §4

SMILES | Anti-tumor rate (%) (HepG2 xenografts) | Body weight (g) Post-dose (HepG2 xenografts) [g] | Tumor weight (HepG2 xenografts) [g] | Body weight (g) Pre-dose (HepG2 xenografts) [g] | IC50 [1] [nM] | IC50 [2] [nM] | IC50 [3] [nM] | IC50 [4] [nM] | IC50 [5] [nM] | LD50 (median lethal dose) (Kunming mice) [mg/kg] | IC50 [6] [nM] | IC50 [8] [nM] | IC50 [9] [nM] | IC50 [10] [nM] | IC50 [11] [nM] | Anti-tumor rate (%) (HL-60 xenografts) | Body weight (g) Post-dose (HL-60 xenografts) [g] | Tumor weight (HL-60 xenografts) [g] | Body weight (g) Pre-dose (HL-60 xenografts) [g] | IC50 [12] [nM] | other results
CCC12C=CCN3CCC4(c5cc(C6(C(=O)OC)CC7CC(C(C)(F)F)CN(Cc8c6[nH]c6ccccc86)C7)c(OC)cc5N(C)C4C(O)(C(=O)NNC(=O)C4CCCN4C(=O)CNC(=O)OCc4ccccc4)C1O)C32 (centres unmarked) [BX-CCFN, Z-GP-NHNH-Vinflunine] | 88.24** % | 22.1 ± 1.2 | 0.30 ± 0.17 | 21.9 ± 1.3 | 299 ± 7.64 | 317 ± 31.3 | 430 ± 10.4 | 229 ± 6.6 | 301 ± 14.3 | 15 | 604 ± 17.9 | 390 ± 15.7 | 614 ± 9.29 | 606 ± 11.5 | 335 ± 7.31 | 70.68** % | 18.6 ± 1.4 | 0.61 ± 0.35 | 18.7 ± 1.4 | 459 ± 13.5 | IC50 [7]: 908 ± 20.2 nM; IC50 [13]: 289 ± 28.8 nM; Anti-tumor rate (%) (MDA-MB-231 xenografts): 88.13** %; Body weight (g) Post-dose (MDA-MB-231 xenografts): 20.6 ± 1.6 g; Tumor weight (MDA-MB-231 xenografts): 0.31 ± 0.11 g; Body weight (g) Pre-dose (MDA-MB-231 xenografts): 20.2 ± 0.7 g; Anti-tumor rate (%) (K562 xenografts): 66.08** %; Body weight (g) Post-dose (K562 xenografts): 23.0 ± 0.8 g; Tumor weight (K562 xenografts): 0.57 ± 0.13 g; Body weight (g) Pre-dose (K562 xenografts): 22.9 ± 1.3 g; IC50 [14]: 726 ± 98.2 nM; IC50 [15]: 270 ± 7.7 nM; IC50 [16]: 309 ± 5.78 nM; IC50 [17]: 320 ± 8.51 nM; Anti-tumor rate (%) (LOVO xenografts): 83.63** %; Body weight (g) Post-dose (LOVO xenografts): 24.5 ± 1.5 g; Tumor weight (LOVO xenografts): 0.47 ± 0.31 g; Body weight (g) Pre-dose (LOVO xenografts): 23.6 ± 1.3 g; IC50 [18]: 430 ± 10.1 nM; IC50 [19]: 528 ± 34.8 nM
CCC1=CC2CN(C1)Cc1c([nH]c3ccccc13)C(C(=O)OC)(c1cc3c(cc1OC)N(C)C1C(O)(C(=O)NNC(=O)C4CCCN4C(=O)CNC(=O)OCc4ccccc4)C(O)C4(CC)C=CCN5CCC31C54)C2 (centres unmarked) [BX-CCRB, Z-GP-NHNH-Vinorelbine] | 85.49** % | 22.6 ± 0.5 | 0.37 ± 0.09 | 22.2 ± 1.5 | 167 ± 4.37 | 269.8 ± 2.03 | 244 ± 9.33 | 109 ± 4.66 | 183 ± 5.51 | 12 | 437 ± 14.4 | 325 ± 11.7 | 181 ± 8.1 | 238 ± 8.37 | 115 ± 5.23 | 74.52** % | 19.2 ± 1.3 | 0.53 ± 0.28 | 19.0 ± 1.2 | 166 ± 15.6 | IC50 [13]: 219 ± 6.29 nM; Anti-tumor rate (%) (MDA-MB-231 xenografts): 85.83** %; Body weight (g) Post-dose (MDA-MB-231 xenografts): 20.1 ± 0.9 g; Tumor weight (MDA-MB-231 xenografts): 0.37 ± 0.07 g; Body weight (g) Pre-dose (MDA-MB-231 xenografts): 19.1 ± 1.7 g; Anti-tumor rate (%) (K562 xenografts): 72.62** %; Body weight (g) Post-dose (K562 xenografts): 23.4 ± 1.2 g; Tumor weight (K562 xenografts): 0.46 ± 0.29 g; Body weight (g) Pre-dose (K562 xenografts): 22.1 ± 0.5 g; IC50 [14]: 208 ± 18.4 nM; IC50 [15]: 167 ± 8.87 nM; IC50 [16]: 210 ± 5.78 nM; IC50 [17]: 123 ± 11.4 nM; Anti-tumor rate (%) (LOVO xenografts): 80.14** %; Body weight (g) Post-dose (LOVO xenografts): 24.1 ± 2.3 g; Tumor weight (LOVO xenografts): 0.57 ± 0.23 g; Body weight (g) Pre-dose (LOVO xenografts): 23.6 ± 1.2 g; IC50 [18]: 182 ± 2.36 nM; IC50 [19]: 120 ± 14.5 nM
CCC1(O)CC2CN(CCc3c([nH]c4ccccc34)C(C(=O)OC)(c3cc4c(cc3OC)N(C=O)C3C(O)(C(=O)NNC(=O)C5CCCN5C(=O)CNC(=O)OCc5ccccc5)C(O)C5(CC)C=CCN6CCC43C65)C2)C1 (centres unmarked) [BX-CCXJ, Z-GP-NHNH-Vincristine] | 88.63** % | 21.9 ± 2.1 | 0.29 ± 0.13 | 22.2 ± 1.2 | 33.4 ± 2.01 | 88.9 ± 6.84 | 43.2 ± 3.53 | 44.9 ± 3.28 | 101 ± 9.02 | 10 | 135 ± 5.54 | 326 ± 13.3 | 57.3 ± 3.36 | 73.2 ± 3.66 | 47.7 ± 2.64 | 72.12** % | 19.7 ± 0.9 | 0.58 ± 0.17 | 19.3 ± 1.1 | 61.7 ± 6.14 | IC50 [7]: 169 ± 5.67 nM; IC50 [13]: 76.9 ± 4.55 nM; Anti-tumor rate (%) (MDA-MB-231 xenografts): 91.18** %; Body weight (g) Post-dose (MDA-MB-231 xenografts): 21.9 ± 2.9 g; Tumor weight (MDA-MB-231 xenografts): 0.23 ± 0.09 g; Body weight (g) Pre-dose (MDA-MB-231 xenografts): 19.5 ± 1.4 g; Anti-tumor rate (%) (K562 xenografts): 75.00** %; Body weight (g) Post-dose (K562 xenografts): 22.5 ± 1.1 g; Tumor weight (K562 xenografts): 0.42 ± 0.14 g; Body weight (g) Pre-dose (K562 xenografts): 21.2 ± 0.9 g; IC50 [14]: 72.8 ± 4.59 nM; IC50 [15]: 176 ± 5.51 nM; IC50 [16]: 40.1 ± 2.09 nM; IC50 [17]: 24.9 ± 1.78 nM; Anti-tumor rate (%) (LOVO xenografts): 79.45** %; Body weight (g) Post-dose (LOVO xenografts): 24.2 ± 1.7 g; Tumor weight (LOVO xenografts): 0.59 ± 0.33 g; Body weight (g) Pre-dose (LOVO xenografts): 23.8 ± 1.0 g; IC50 [18]: 55.3 ± 1.9 nM; IC50 [19]: 54.8 ± 8.41 nM
